These are literature values, as cited in patent US20020144302A1 (priority 1996, published 2002).

The conditions of this series: man; daily dose around 200 mg (Vidal, 1996).

The structures appear in SMILES notation.

In the case of `CC(C)OC(=O)C(C)(C)Oc1ccc(C(=O)c2ccc(Cl)cc2)cc1` [fenofibrate], the plasma concentration result is “about 15 μg/ml”.
